Measured values published in PubChem BioAssay (NCI).
Where “and” joins values, the source holds several entries; their conditions need not be identical. Identical values can stand only once.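 Exposure lasted 48 hours, with cells grown in 96-well plates and compounds tested at five concentrations. At the GI50, growth is halved. Definition used: TGI = concentration required for complete inhibition of growth.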

Test system: MDA-MB-468 breast
Assay: NCI anticancer screen, dose series, 48 h

Structure (SMILES)	GI50	TGI
CCCCn1sc(=O)n(Cc2ccc(CNC(=O)OCc3ccc4c(Br)cc(Br)c(O)c4n3)cc2)c1=O	388 nM	> 100000 nM
Cc1ccc(S(=O)(=O)Cc2nc(-c3ccc(C(=O)NCc4cccnc4)cc3)oc2C)cc1	4740 nM	> 100000 nM
COc1ccccc1S(=O)(=O)Nc1ccc2c(c1)CN(C)C(=O)N2	2400 nM and 1440 nM	> 56100 nM and 50300 nM
Cc1nc2n(c(=O)c1CCN1CCC(c3noc4cc(F)ccc34)CC1)CCCC2	34000 nM	> 50000 nM
O=C(O)C1(Cc2cccc(Nc3nccs3)n2)CCC(Oc2cccc(Cl)c2F)CC1 (centres undefined)	526 nM	34600 nM
CCOC(=O)c1cc2c(n1Cc1ccccc1)-c1oncc1CC2	2190 nM	7760 nM
CCCCCc1ccc(S(=O)(=O)Nc2cc(-c3csc(NC(=O)CN4CCN(C)CC4)n3)ccc2OC)cc1	917 nM	2110 nM
COc1ccc(Cn2cc3c(c2-c2cc(OC)c(OC)c(OC)c2)CCc2cnoc2-3)cc1[N+](=O)[O-]	376 nM	4220 nM
COc1ccc(C(=O)COc2cccc(/C=C3\CSc4ccc(C)cc4C3=O)c2)cc1	4840 nM	36900 nM
CCCCCc1ccc(S(=O)(=O)N(C(C)=O)c2cccc(-c3csc(N(CCN4CCN(C)CC4)C(C)=O)n3)c2)cc1	735 nM	2710 nM
Nc1c(C(=O)Nc2ccccc2F)sc2nc3c(cc12)C(=O)CCC3	247 nM	956 nM
COc1cnc2c(c1)C(=O)c1c-2n(CCCN2CCCC2)c(=O)c2cc(F)ccc12	175 nM	517 nM
CC(=O)OCC1O[C@@H]([S-])C(OC(C)=O)[C@H](OC(C)=O)[C@@H]1OC(C)=O.[Au+].c1ccc(CN2[CH-]N(Cc3ccccc3)C(c3ccccc3)=C2c2ccccc2)cc1	1540 nM	3260 nM
CS(=O)(=O)CCNCc1ccc(-c2ccc3ncnc(Nc4ccc(OCc5ccccc5)c(Cl)c4)c3c2)o1	10.7 nM	196 nM
CN(CCCl)c1ccc(/C=C/C2=[N+](C)c3ccccc3C2(C)C)cc1	353 nM	1690 nM
O=C(CCCCCCSc1nc(-c2ccc(Cl)cc2)cc(-c2ccc(Cl)cc2)n1)NO	1620 nM	6380 nM
C=C1C(=O)O[C@H]2[C@H]1CC/C(COC(=O)c1ccc(C#N)cc1)=C\CC[C@@]1(C)O[C@@H]21	1030 nM	3130 nM
C/C(Cc1ccc(Cl)cc1)=C(/c1ccc(Cl)cc1)c1ccc(OCCN(C)C)cc1	2970 nM	7760 nM
COc1ccc(C(=O)c2cc3c(N)c(C(=O)Nc4cccc(Cl)c4C)sc3nc2C)cc1	70.7 nM	1220 nM
COc1ccc(-c2cc(-c3cc(OC)c(OC)c(OC)c3)c(C#N)c(N3CCOCC3)n2)cc1O	13400 nM	> 100000 nM
CCC1CCc2nc3sc(C(=O)Nc4ccccc4C)c(N)c3cc2C1 (centres undefined)	244 nM	742 nM

Structure (SMILES)	GI50	TGI
CC(=O)[O][Hg][c]1ccccc1	154 nM	341 nM
N[C@@H]1CCCN(c2c(/C=C3\SC(=O)NC3=O)cccc2-c2ccccc2)C1	9540 nM	24500 nM
C#CCOc1cccc(Nc2ncnc3ccc(NC(=O)CCl)cc23)c1	3160 nM	27200 nM
O=C(O)c1ccc2c(c1)nc(Nc1cccc(Cl)c1)c1ccncc12	1050 nM and 1670 nM	4840 nM and 8970 nM
CC1=C[S+](c2ccccc2)c2cccc3cc4ccccc4c1c23 (centres undefined)	78.5 nM	766 nM
CCN1C(=O)N(c2ccccc2)C2NN=c3s/c(=C4\C(=O)N(C(C)C)c5ccccc54)c(=O)n3C21 (centres undefined)	817 nM	4180 nM
CN(C[C@@H]1COCCO1)S(=O)(=O)Nc1ccc2ccc3ncc(-c4cnn(C)c4)cc3c(=O)c2c1	7130 nM	> 100000 nM
O=C(OCc1ccc2c(Cl)cc(Cl)c(O)c2n1)c1cc2ccccc2[nH]1	238 nM	626 nM
CCOC(=O)Nc1ccc(-c2nc(-c3cccc(OC)c3)c(-c3ccnc(Br)c3)[nH]2)cc1	1670 nM	4910 nM
COc1cccc(C2C3=C(COC3=O)Oc3cc4c(cc32)OCO4)c1 (centres undefined)	81.7 nM	> 100000 nM
Cc1c(NC(=O)OC[C@@H]2COCCN2)cn2ncnc(Nc3ccc4c(cnn4Cc4cccc(F)c4)c3)c12	120 nM and 45.4 nM	1120 nM and 329 nM
C/C(=C\c1ccc(Cl)c(Cl)c1)[N+](=O)[O-]	1550 nM	3020 nM
C#Cc1cccc(Nc2nc3ccc([N+](=O)[O-])cc3nc2Nc2cccc(C#C)c2)c1	174 nM	499 nM
CNCCCNc1nc2ccccc2c2c(=O)c3cc(Cl)ccc3sc12	1260 nM	2830 nM
c1ccc(Cn2c(-c3ccc(OC[C@H](C4CCNCC4)n4c(-c5ccccc5)nc5ccccc54)cc3)nc3ccccc32)cc1	1120 nM	2460 nM
O=C1CCc2c(sc3[nH]c(=S)n(Cc4ccccc4)c(=O)c23)C1	2950 nM	9310 nM
COc1cc2nc3cc([N+](=O)[O-])ccc3c(NCCCNCC(C)(C)O)c2cc1OC	230 nM	570 nM
CCCSC1=NC2C(N(CC)C(=O)N2CC)N1/N=C/C=C/c1ccccc1[N+](=O)[O-] (centres undefined)	3060 nM	> 100000 nM
CCCCCCCC(=O)SCC/C=C/[C@@H]1CC(=O)NCc2nc(co2)C2=N[C@@](C)(CS2)C(=O)N[C@@H](C(C)C)C(=O)O1	29.1 nM	23500 nM
O=[N+]([O-])c1ccc2ncccc2c1Cl	1870 nM	4810 nM
COc1ccc(-c2nc3cc(Cl)c(Cl)cc3n2CC(=O)N=Nc2c(O)[nH]c3ccc(Cl)cc23)cc1	1700 nM	3400 nM
